The results in this text go back to patent publication US20190151312A1, “HEPARAN SULFATE BIOSYNTHESIS INHIBITORS FOR THE TREATMENT OF DISEASES” (BioMarin Pharmaceutical Inc., priority 2014, published 2019).

As usually defined, the IC50 is the concentration needed to halve the response being measured.

One assay relates to GM01896 cells (MPS II dermal fibroblasts). As to the kind of experiment: Assay 1: MPS cellular assay, MPS II (heparan sulfate disaccharide biomarkers by LC-MS). Format: cell-based, human. The following applies: Assay 1 for MPS II, heparan sulfate disaccharide biomarkers (I2a4, I2a6, I2S0 and/or I2S6), read-out: IC50 Range. The procedure, abridged: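 MPS II patient dermal fibroblasts (GM01896) treated with compound at ≤30 μM for 4 to 21 days. Heparan sulfate GAGs isolated by anion exchange, digested with heparinases I-III, aniline-tagged against [13C6]aniline standards and quantified by LC-MS; IC50 from curve fitting. Viability monitored by alamar blue or ATP.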
Turning to `Cc1ccn(-c2ccc(Nc3cc(-c4ccc5c(C)nn(C)c5c4)nc(N4CCOCC4)n3)cc2)n1` [[6-(1,3-dimethyl(1H-indazol-6-yl))-2-morpholin-4-ylpyrimidin-4-yl][4-(3-methylpyrazolyl)phenyl]amine], the concentration for half-maximal inhibition (IC50) was less than 500 nM.

The assay is the same for the next values; noted with them: Homo sapiens, Fibroblast, Assay 1 for MPS II, heparan sulfate disaccharide biomarkers (I2a4, I2a6, I2S0 and/or I2S6), read-out: IC50 Range.
As to `Cc1nn(C)c2cc(-c3cc(Nc4ccc(-c5cc[nH]c5)cc4)nc(N4CCOCC4)n3)ccc12` [[6-(1,3-dimethyl(1H-indazol-6-yl))-2-morpholin-4-ylpyrimidin-4-yl](4-pyrrol-3-ylphenyl)amine], the half-maximal inhibitory concentration (IC50) was in the range of 500 to 1000 nM.
Still for that read-out and setting: next, `COc1ccc(Cn2cc(-c3ccc(Nc4cc(-c5ccc6c(C)nn(C)c6c5)nc(N5CCOCC5)n4)cc3)cn2)cc1` [[6-(1,3-dimethyl(1H-indazol-6-yl))-2-morpholin-4-ylpyrimidin-4-yl](4-{1-[(4-methoxyphenyl)methyl]pyrazol-4-yl}phenyl)amine]: 1000 to 5000 nM; `Cc1nn(C)c2cc(-c3cc(Nc4ccc(-c5nccn5C)cc4)nc(N4CCOCC4)n3)ccc12` [[6-(1,3-dimethyl(1H-indazol-6-yl))-2-morpholin-4-ylpyrimidin-4-yl][4-(1-methylimidazol-2-yl)phenyl]amine]: less than 500 nM.
Same read-out and setting: next, `Cc1nn(C)c2cc(-c3cc(Nc4ccc(-c5cn(C)cn5)cc4)nc(N4CCOCC4)n3)ccc12` [[6-(1,3-dimethyl(1H-indazol-6-yl))-2-morpholin-4-ylpyrimidin-4-yl][4-(1-methylimidazol-4-yl)phenyl]amine]: 1000 to 5000 nM.
The same measure, in the same setting: next, `Cc1nn(C)c2cc(-c3cc(Nc4ccc(-c5ccn(C)n5)cc4)nc(N4CCOCC4)n3)ccc12` [[6-(1,3-dimethyl(1H-indazol-6-yl))-2-morpholin-4-ylpyrimidin-4-yl][4-(1-methylpyrazol-3-yl)phenyl]amine]: 1000 to 5000 nM.
As for `Cc1nn(C)c2cc(-c3cc(Nc4ccc(-c5cccn5C)cc4)nc(N4CCOCC4)n3)ccc12` [[6-(1,3-dimethyl(1H-indazol-6-yl))-2-morpholin-4-ylpyrimidin-4-yl][4-(1-methylpyrrol-2-yl)phenyl]amine], the IC50 lay within 500 to 1000 nM.
Still for that read-out and setting: next, `Cc1nn(C)c2cc(-c3cc(Nc4ccc(-c5ccn(C)c5)cc4)nc(N4CCOCC4)n3)ccc12` [[6-(1,3-dimethyl(1H-indazol-6-yl))-2-morpholin-4-ylpyrimidin-4-yl][4-(1-methylpyrrol-3-yl)phenyl]amine]: 1000 to 5000 nM; `Cc1nn(C)c2cc(-c3cc(Nc4ccc(-c5[nH]ncc5F)cc4)nc(N4CCOCC4)n3)ccc12` [[6-(1,3-dimethyl(1H-indazol-6-yl))-2-morpholin-4-ylpyrimidin-4-yl][4-(4-fluoropyrazol-5-yl)phenyl]amine]: 500 to 1000 nM.
Same read-out and setting: the value for `Cc1cnn(-c2ccc(Nc3cc(-c4ccc5c(C)nn(C)c5c4)nc(N4CCOCC4)n3)cc2)n1` [[6-(1,3-dimethyl(1H-indazol-6-yl))-2-morpholin-4-ylpyrimidin-4-yl][4-(4-methyl(1,2,3-triazol-2-yl))phenyl]amine] was less than 500 nM; that for `Cc1nn(C)c2cc(-c3cc(Nc4ccc(-c5nnc(C6CC6)[nH]5)cc4)nc(N4CCOCC4)n3)ccc12` [[6-(1,3-dimethyl(1H-indazol-6-yl))-2-morpholin-4-ylpyrimidin-4-yl][4-(5-cyclopropyl(4H-1,2,4-triazol-3-yl))phenyl]amine] was less than 500 nM; that for `Cc1nnc(-c2ccc(Nc3cc(-c4ccc5c(C)nn(C)c5c4)nc(N4CCOCC4)n3)cc2)[nH]1` [[6-(1,3-dimethyl(1H-indazol-6-yl))-2-morpholin-4-ylpyrimidin-4-yl][4-(5-methyl(4H-1,2,4-triazol-3-yl))phenyl]amine] was less than 500 nM.
`Cc1nn(C)c2cc(-c3cc(Nc4ccc5[nH]ccc5c4)nc(N4CCOCC4)n3)ccc12` [[6-(1,3-dimethyl(1H-indazol-6-yl))-2-morpholin-4-ylpyrimidin-4-yl]indol-5-ylamine]: the IC50 was 1000 to 5000 nM.
Still for that read-out and setting: the value for `Cc1nn(C)c2cc(-c3cc(Nc4ccc5cc[nH]c5c4)nc(N4CCOCC4)n3)ccc12` [[6-(1,3-dimethyl(1H-indazol-6-yl))-2-morpholin-4-ylpyrimidin-4-yl]indol-6-ylamine] was 500 to 1000 nM.
